This is an account of results in patent EP4592274A1, “RADIOLABELED TYROSINE DERIVATIVE AND APPLICATION THEREOF” (OSAKA UNIVERSITY, priority 2022, dated 2024).

The nature of data set [1]: Thin-layer chromatography (TLC) analysis of decomposition after production. Type of data set: physicochemical. The following applies: 24 hours after purification; in sodium ascorbate aqueous solution (final concentration 1%). The protocol:
The crude product solution (1 µL) was analyzed by thin-layer chromatography (TLC). The sample was spotted on a thin-layer plate (silica gel 60F254), and a mixed solvent of acetonitrile/water (2/1) was used as a developing solvent. The thin-layer plate was exposed to an imaging plate (BAS IP MS 2025E, GE Healthcare) for about 15 min, and then analyzed by a bioimage analyzer (Tyhoon™ FLA-7000, Cytiva). The results are shown in Fig.2. ^211At-AAMT-OMe in the crude product solution was detected at Rf 0.80, and the radiochemical yield (RCY) was 81.3%.
Before purification, immediately after production, 3 hours after production, and 24 hours after production, ^211At-AAMT-OMe was analyzed by thin-layer chromatography (TLC) in the same manner as described above.
24 hours after production, (R)-^211At-AAMT-OMe was analyzed by thin-layer chromatography (TLC) in the same manner as described above.
24 hours after production, ^211At-AAMT-OEt was analyzed by thin-layer chromatography (TLC) in the same manner as described above.
24 hours after production, ^211At-AAMT-OPr was analyzed by thin-layer chromatography (TLC) in the same manner as described above.
24 hours after production, ^211At-AAMPhe-OMe was analyzed by thin-layer chromatography (TLC) in the same manner as described above.

Data set [2] deals with CDDP-resistant A549 (A549 CDDP-r). The experiment in a line: Cell viability of CDDP-resistant A549 in the presence of CDDP (Test Example 7). Type of data set: cell-based, human. The following applies: A549 CDDP-r at 100 µg/mL CDDP. The protocol: Cisplatin (CDDP) was added to a human lung cancer cell line, A549 at an initial concentration of 1 µg/mL. After 3 days, dead cells were removed, and CDDP was again added. Cells that grew like A549 even in the presence of CDDP were isolated and maintained for 3 months while gradually increasing the concentration of CDDP in a culture medium.

Data set [3] concerns human pancreatic cancer cell line, PANC1. The experiment in a line: Measurement of accumulated amounts of 211At-labeled compounds in tumors of PANC1 transplanted mice (Test Example 5). Type of data set: in vivo. The following applies: 0.1 MBq per mouse via tail vein. The procedure: Radiation doses before and after the administration were measured, and a difference between them was defined as an injected dose (ID). Ten minutes and one hour after administration, the mice were anesthetized by isoflurane inhalation, the tumors were isolated by autopsy in chronological order, and their radiation doses and weights were measured using a gamma counter (2480 Wizard^2, PerkinElmer) and a semimicro scale (Shimadzu Corporation, readability 10 µg), respectively. For comparison between accumulated amounts, accumulated amounts per unit amount (% ID/g) were calculated.

Data set [4] has the same test system. The data set can be described thus: Imaging of mice subcutaneously transplanted with PANC1 (Test Example 2). The following applies: 2 hours after administration, 0.5 MBq per mouse via tail vein.
Description: Immunodeficient mice (Balb/c-nu/nu, 5-week-old, male) were habituated for 1 week and then subcutaneously transplanted with a human pancreatic cancer cell line (PANC1, 1 × 10^7 cells/mouse). After the transplantation, the mice were observed over time until tumor reached a size large enough for imaging (about 1000 mm^3). […] Two hours after administration, the mice were anesthetized by isoflurane inhalation, and planar images were taken using a γ camera (E-cam, Siemens).
In data set [5] the test system is CDDP-resistant A549 (A549 CDDP-r). The experiment in a line: Cytotoxicity test on CDDP-resistant A549 (Test Example 8). The following applies: cultivation for 48 hours. The procedure:
Two days before experiment, A549 and CDDP-resistant A549 (A549 CDDP-r) were each seeded in a 96-well plate at a concentration of 1 × 10^5 cells/mL. ^211At-AAMT-OMe or ^211At-AAMT adjusted to a predetermined concentration was added to A549 cells and CDDP-resistant A549 cells, respectively, and the cells were cultured (CO2 5%, 37°C). After the cultivation for 48 hours, Cell counting kit-8 (DOJINDO LABORATORIES) was added. After the addition, the cells were cultured at 37°C for 1 hour, and cell viability was measured using absorbance at 450 nm as an indicator.

Data set [6] has as its system human pancreatic cancer cell line, PANC1. The following applies: up to 21 days after administration, 1 MBq per mouse. The protocol:
Tumor sizes and body weights were measured over time after the administration. The experiment was terminated 21 days after administration. It should be noted that in Fig. 21 and Fig. 22, "OMe" is ^211At-AAMT-OMe and "OEt" is ^211At-AAMT-OEt.

In data set [7] the test system is PANC1. The experiment in a line: Cellular uptake test (using PANC1). In kind it is cell-based, human. The conditions noted are these: compared to 211At-AAMT; for uptake speed: PANC1 cells. The procedure: • Cells to be used: PANC1 • Culture medium to be used: D-MEM (containing 10% FBS, 1% P/S)
Two days before a test day, a cell suspension was prepared in such a manner that the concentration of predetermined cells was 1 x 10^5 cells/mL in the same manner as in Test Example 1. The cell suspension was seeded in a 24-well multiculture plate at a volume of 0.5 mL per well. On the day of the test, cultures were confirmed to be subconfluent (which refers to a state where 70-80% of the well is covered in density). The cells were washed twice with warmed PBS(-) Buffer (166-23555, FUJIFILM Wako Pure Chemical Corporation), the culture medium was replaced with HBSS(-) Buffer (085-09355, FUJIFILM Wako Pure Chemical Corporation), and the plate was left to stand in an incubator (MINIcell-35, WakenBtech Co., Ltd) until an RI addition test.
^211At-AAMT-OMe, ^211At-AAMT-OEt, ^211At-AAMT-OPr, or ^211At-AAMT was added to the prepared cells at 10 µL/well. BCH (LAT1 inhibitor, 20 mM) or unlabeled AMT (α-methyl tyrosine, […]) was previously (15 minutes before) added (10 µg/mL). The cells were cultured (CO2 5%, 37°C), and after 30 minutes, the liquid was removed by suction using an aspirator. The cells were washed twice with PBS(-). The cells were lysed by adding 0.1N NaOH to obtain a lysate, and the radioactivity of the lysate was measured using a γ counter. After the radioactivity measurement, the lysate was loaded into a 96-well plate at a volume of 10 µL per well, the protein amount was measured by the BCA method, and the number of cells was corrected based on the protein amount. Absorbance was measured by MultiScanFC (Thermo Fisher). The uptake level of ^211At-AAMT-OMe, ^211At-AAMT-OEt, ^211-At-AAMT-OPr, or ^211At-AAMT into the cells (number of radioactivity counts/protein amount) was calculated.

Data set [8] has as its system gemcitabine-resistant human pancreatic cancer cell line, PANC1 (PANC1 Gem-r). The experiment in a line: Cell viability of gemcitabine-resistant PANC1 in the presence of gemcitabine (Test Example 11). The following applies: PANC1 Gem-r at 30 µg/mL gemcitabine. In kind it is cell-based. The protocol:
Gemcitabine (Gem) was added to a human pancreatic cancer cell line, PANC1 at an initial concentration of 100 ng/mL. After 3 days, dead cells were removed, and gemcitabine was again added. Cells that grew like a human pancreatic cancer cell line, PANC1 even in the presence of gemcitabine were isolated and maintained for 3 months while gradually increasing the concentration of gemcitabine in a culture medium.

[9] abbreviates: 10 minutes after administration.

Consider `COc1ccc(C[C@@](C)(N)C(=O)O)cc1[At]` [(R)-^211At-AAMT-OMe, (R)-3-astato(^211At)-O-methyl-α-methyltyrosine], for which, in data set [1], the “decomposition (TLC)” value is listed as “no decomposition”.
Consider `[NH2][Pt]([NH2])([Cl])[Cl]` [CDDP, Cisplatin], for which the cell viability entry in data set [2] was “still alive”.
`COc1cc(C[C@](C)(N)C(=O)O)ccc1[At]` [^211At-AAMPhe-OMe, (S)-α-methyl-4-astato(^211At)-3-methoxyphenylalanine]: the tumor accumulation in data set [3] (setting [9]) is 3.77 %ID/g; in data set [3] (1 hour after administration) it was 6.38 %ID/g. Besides, in data set [1], the “decomposition (TLC)” value was “no decomposition”.
With `C[C@](N)(Cc1ccc(O)c([At])c1)C(=O)O` [^211At-AAMT, astato(^211At)-α-methyl-L-tyrosine, reference compound], the “accumulation in the tumor (planar image, γ camera)” value in data set [4] was “accumulated in the tumor sites”. For the same molecule, the figures for the tumor accumulation in data set [3] (setting [9]) and in data set [3] (1 hour after administration) were 0.29 %ID/g and 2.49 %ID/g, respectively. Also, the “cytotoxicity (cell viability, Cell counting kit-8)” value in data set [5] is reported as “has cytotoxicity”.
In the case of `CCOc1ccc(C[C@](C)(N)C(=O)O)cc1[At]` [^211At-AAMT-OEt, (S)-3-astato(^211At)-O-ethyl-α-methyltyrosine], in data set [6], the “apparent toxicity induced by administration” value is given as “not observed” and the body weight result is reported as “gently increased”. For the same molecule, the “tumor growth inhibiting effect (tumor size)” value in data set [6] (compared with the 211At-AAMT-OMe administration group) was “comparable”. In data set [7], the uptake speed entry is given as “comparable or superior” and the “uptake level into the cells (number of radioactivity counts/protein amount)” value was “comparable or superior”. In data set [3] (setting [9]), this molecule registered a tumor accumulation of 4.21 %ID/g. In data set [3] (1 hour after administration), the tumor accumulation was 3.59 %ID/g. The “decomposition (TLC)” value in data set [1] is given as “no decomposition”.
`CCCOc1ccc(C[C@](C)(N)C(=O)O)cc1[At]` [^211At-AAMT-OPr, (S)-3-astato(^211At)-O-propyl-α-methyltyrosine]: in data set [7], the uptake speed result is recorded as “comparable or superior” and the “uptake level into the cells (number of radioactivity counts/protein amount)” value is “comparable or superior”. The molecule also registered a tumor accumulation in data set [3] (setting [9]) of 5.91 %ID/g. In data set [3] (1 hour after administration), this molecule yielded a tumor accumulation of 9.45 %ID/g. The “decomposition (TLC)” value in data set [1] is recorded as “no decomposition”.
Consider `Nc1ccn([C@@H]2O[C@H](CO)[C@@H](O)C2(F)F)c(=O)n1` [gemcitabine, Gemcitabine], for which, in data set [8], the cell viability result is reported as “still alive”.
